Target: T1, zfT1R2a/zfT1R3 (Danio rerio, UniProt A0A8M1N8F9+Q2MHK9)
T1 sequence (A0A8M1N8F9 26-825): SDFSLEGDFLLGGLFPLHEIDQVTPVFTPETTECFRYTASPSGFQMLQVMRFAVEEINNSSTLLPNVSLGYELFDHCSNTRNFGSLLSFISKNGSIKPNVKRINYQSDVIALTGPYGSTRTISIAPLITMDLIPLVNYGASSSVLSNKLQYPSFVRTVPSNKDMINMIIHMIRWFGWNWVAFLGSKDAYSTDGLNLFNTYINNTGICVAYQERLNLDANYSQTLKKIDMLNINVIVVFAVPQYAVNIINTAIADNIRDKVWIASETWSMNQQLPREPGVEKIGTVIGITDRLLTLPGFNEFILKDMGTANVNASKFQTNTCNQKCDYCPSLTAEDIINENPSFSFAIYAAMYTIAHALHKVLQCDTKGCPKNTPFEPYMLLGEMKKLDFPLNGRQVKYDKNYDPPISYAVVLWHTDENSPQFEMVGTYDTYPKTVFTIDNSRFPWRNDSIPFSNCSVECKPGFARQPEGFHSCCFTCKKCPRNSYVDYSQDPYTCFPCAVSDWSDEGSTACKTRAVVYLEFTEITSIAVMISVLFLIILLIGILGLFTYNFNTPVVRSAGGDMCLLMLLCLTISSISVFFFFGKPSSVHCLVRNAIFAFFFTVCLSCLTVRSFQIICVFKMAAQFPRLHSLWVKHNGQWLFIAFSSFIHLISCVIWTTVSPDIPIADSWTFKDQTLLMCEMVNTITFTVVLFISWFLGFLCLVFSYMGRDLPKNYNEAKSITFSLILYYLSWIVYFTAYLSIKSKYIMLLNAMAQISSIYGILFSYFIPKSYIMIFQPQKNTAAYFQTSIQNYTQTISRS
T1 sequence (Q2MHK9 25-850): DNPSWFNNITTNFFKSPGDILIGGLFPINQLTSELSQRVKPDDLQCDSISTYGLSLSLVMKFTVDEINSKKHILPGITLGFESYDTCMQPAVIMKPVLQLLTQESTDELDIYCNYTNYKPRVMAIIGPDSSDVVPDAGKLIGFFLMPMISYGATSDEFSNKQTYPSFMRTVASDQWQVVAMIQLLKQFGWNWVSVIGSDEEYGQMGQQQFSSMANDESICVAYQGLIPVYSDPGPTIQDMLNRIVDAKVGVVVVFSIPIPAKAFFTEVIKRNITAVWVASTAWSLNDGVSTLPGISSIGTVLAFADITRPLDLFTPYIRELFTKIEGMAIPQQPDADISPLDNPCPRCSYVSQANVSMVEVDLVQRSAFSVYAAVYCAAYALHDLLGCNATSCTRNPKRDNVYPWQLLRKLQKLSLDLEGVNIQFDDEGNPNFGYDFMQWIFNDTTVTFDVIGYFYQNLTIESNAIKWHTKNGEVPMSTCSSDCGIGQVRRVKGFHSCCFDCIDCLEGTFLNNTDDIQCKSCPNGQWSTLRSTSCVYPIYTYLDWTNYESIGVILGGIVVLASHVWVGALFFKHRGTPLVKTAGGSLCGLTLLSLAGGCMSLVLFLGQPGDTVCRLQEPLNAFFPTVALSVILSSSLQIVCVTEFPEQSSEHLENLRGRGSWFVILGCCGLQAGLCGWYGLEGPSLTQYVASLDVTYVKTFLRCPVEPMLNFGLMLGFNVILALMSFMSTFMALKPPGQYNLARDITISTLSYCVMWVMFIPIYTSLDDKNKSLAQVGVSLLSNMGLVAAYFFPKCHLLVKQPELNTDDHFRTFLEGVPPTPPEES
Experiment: Ca2+ mobilization dose-response assay, stable cells expressing zfT1R2a/zfT1R3 with G16gust44
Procedure: The buffers with lower Cl^− were prepared by progressively replacing NaCl, KCl, CaCl2 and MgCl2 in the buffer with gluconate equivalents[20]. The pH was adjusted to 7.4 with NaOH. Ligands were diluted with the assay buffers at the desired concentrations.
Measurements of the responses of the cells by cell-based assay based on the intracellular Ca^2+ mobilization were carried out as described previously with some modifications[20],[34],[46],[47]. […] The cells were seeded in 96-well plates (clear-bottomed CellBIND surface plate, Corning, Glendale, AZ, USA) coated with ε-poly-L-lysine (Cosmo Bio, Tokyo, Japan) at approximately 70,000 cells per well. After 20 h, the medium was removed and replaced with high Cl^− buffer. After 3 h 30 min incubation at 27 °C, cells were loaded with 5 µM calcium-indicator dye Fluo-8 AM (AAT Bioquest, Sunnyvale, CA, USA) diluted in high Cl^− buffer. After incubation for 30 min at 27 °C, the cells were washed with buffers containing appropriate concentrations of Cl^−. The cellular assay was initiated after 3–5 min of resting and was completed within 5 min. The measurements were made using FlexStation 3 (Molecular Devices, Sunnyvale, CA, USA) at 27 °C. Fluorescence changes (i.e., excitation at 485 nm and emission at 525 nm with a cutoff at 515 nm) were monitored at 2 s intervals. A 100-µL aliquot of assay buffer supplemented with 2 × ligands was added at 20 s, and scanning was continued for an additional 40 s. The response of each well was determined as ∆RFU (delta relative fluorescent units), which was calculated as (maximum fluorescent value)—(minimum fluorescent value). […] Such normalized data from more than three independent experiments are reported as the mean ± standard error of the mean (SEM). Dose‒response fitting curves were calculated by Prism 9 (GraphPad Software, San Diego, CA) using nonlinear regression (log(agonist) vs. response—variable slope), based on the integrated data from the several independent experiments.

Compound | EC50 in 10 mM Cl- buffer relative to high Cl- buffer (10 mM vs 141.4 mM Cl- buffer) | EC50 (EC50, [Cl-]o=10 mM, unit inferred) [µM] | [Cl-]o at which sensitivity is clearly reduced (agonist L-Pro, buffers with 10-141.4 mM Cl-)
C[C@H](N)C(=O)O [L-Ala, L-alanine] | not influenced | 132 | 
[Cl-].[Na+] [NaCl] |  |  | below 80 mM
